From patent publication US7417026B2, “Mobilization of hematopoietic cells” (Children's Hospital Medical Center, priority 2003, dated 2008)

Experiments:
HSC/progenitor cells [1] = assay: Mobilization of progenitor cells into peripheral blood, normal mice; assay type: in vivo; details: intraperitoneal injection, three doses
Experimental: In FIG. 4, NSC23776, an inhibitor of GEF interaction with Rac proteins, or PBS as a control was administered by intraperitoneal injection to normal mice. At the indicated time points after injection, mice were bled and analyzed for the number of progenitor cells in the peripheral blood. Three doses of drug were administered. Each point represents samples from 6 mice, mean +/− SEM.

HSC/progenitor cells [2] = assay: Mobilization of progenitor cells into peripheral blood, Rac2-/- mice; assay type: in vivo; details: intraperitoneal injection, three doses
Experimental: In FIG. 5, NSC23776 or PBS as a control was administered by intraperitoneal injection to normal mice and mice with a genetic deficiency of Rac2 (Rac2−/− mice). At the indicated time points after injection, mice were bled and analyzed for the number of progenitor cells in the peripheral blood. Three doses of drug were administered. Each point represents samples from 6 mice, mean +/− SEM. For information on how to make and use NSC23776 and other small molecule inhibitors, see copending U.S. Provisional application 60/523,599, filed Nov. 20, 2003.

p42/p44 = details: neutrophils, 10 μM
From the text: (§2) It was next determined whether, in a manner similar to HSC/P, p42/p44 MAPKs were regulated via Rac proteins in neutrophils.

WT neutrophils [3] = details: 10 μM
From the text: as §2

ERK = details: HSC/P cells, 30 μM
WT HSC/P cells [4] = assay: Apoptosis of HSC/P following SCF stimulation (Annexin-V); assay type: cell-based, mice; details: concentration not given
From the text: By contrast, Rac2 appears to play no role in proliferation but regulated cell survival through the known anti-apoptotic protein Akt (Kennedy, et al. Genes Dev. 11, 701-13, 1997). Rac2 but not Rac1 deficiency was associated with increased frequency of both early (Annexin-V+) and late (Annexin V+/7AAD+) apoptotic cells (FIG. 2F) and expression of the Rac2 cDNA in Rac2−/− HSC/P led to a complete reversal of the apoptotic phenotype [4.4+0.8 vs. 6.6+1.3, vs. 3.1+0.7; % Annexin-V+ cells, WT vs. Rac2−/− vs. Rac−/− (Rac2+); p<0.01 Rac2−/− vs. Rac2−/− (Rac2+)]. Loss of both Rac1 and Rac2 activities was associated with a more severe apoptotic phenotype compared with deficiency of only Rac2 GTPase activity (FIG. 2D). […] The reduced Akt activation was close to normal in Rac1−/− cells.

WT neutrophils [5] = details: 10 μM; remark: listed apart in the source
Experimental: Neutrophil chemotaxis in response to 10 μM formyl-methionyl-leucyl-phenylalanine (fMLP) was examined in Boyden chamber assays.

WT neutrophils [6] = details: 10 μM; remark: listed apart in the source
From the text: as §2

WT HSC/P cells [7] = assay: Cell cycle analysis of HSC/P after SCF stimulation (cells in S+G2/M); assay type: cell-based, mice; details: 30 μM
Experimental: To further analyze the mechanism, by which Rac1 affects proliferation in primitive HSC/P cells, cell cycle analysis was performed after stimulation with 100 ng/ml SCF. […] In contrast, the number of Rac2−/− cells in S+G2/M phases was similar to WT cells. The delay in entry into S phase was significant by 24 hours after SCF addition and persisted at 48 hours. This defect in cell cycle progression appeared directly related to Rac1 deficiency, since expression of Rac1 protein using retrovirus-mediated gene transfer restored cycle progression in Rac1−/− cells [33+4 vs. 19+3 vs. 34+3; % cells in S+G2/M, WT vs. Rac1−/− vs. Rac1−/− (Rac1+), p<0.01 Rac1−/− vs. Rac1−/− (Rac1+)].

RhoA-F30L [8] = molecular target: T1, RhoA-F30L (Homo sapiens, UniProt P61586, F30L); assay: RhoA-F30L-induced transformation; assay type: cell-based; details: for RhoA-F30L-induced transformation: high copy number retroviral vector SF91-EMCV-IRES-GFP
T1 construct: expressed in transfected cells
T1 sequence (P61586 whole entry F30L): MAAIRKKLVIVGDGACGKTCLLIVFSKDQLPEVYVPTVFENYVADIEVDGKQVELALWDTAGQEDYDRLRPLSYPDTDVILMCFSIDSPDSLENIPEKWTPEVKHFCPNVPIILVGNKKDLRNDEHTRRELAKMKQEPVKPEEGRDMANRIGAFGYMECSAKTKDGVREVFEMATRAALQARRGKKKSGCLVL
From the text: (§1) Like other cases of retrovirus-based gene transfer approach, the copy number of the introduced RhoGAP-Rho chimeras in the host cells will likely to be important for the efficacy of their application.

RhoA-F30L [9] = molecular target: T1, RhoA-F30L; assay: Downregulation of RhoA-F30L biochemical activity by retrovirally expressed RhoGAP chimera; assay type: cell-based; details: for biochemical activity of F30LRhoA: high copy number retroviral vector SF91-EMCV-IRES-GFP
From the text: as §1

CCN(CC)CCCC(C)Nc1nc(C)cc(Nc2ccc3nc(C)cc(N)c3c2)n1 (stereo not drawn) [NSC23776] was tested. Which “mobilization of HSC/progenitor cells” value (HSC/progenitor cells [1]) did it give?
Its value is “does indeed lead to mobilization”.

What about the “mobilization of HSC/progenitor cells” value (HSC/progenitor cells [2]) of the same molecule?
The value was “additive effect”.

For N#CC(=C(/N)Sc1ccccc1N)/C(C#N)=C(\N)Sc1ccccc1N [U0126], which “phosphorylation of p42/p44” value (p42/p44) is on record?
The value was “abrogates”.

What about the cortical actin formation (WT neutrophils [3]) of the same molecule?
Its cortical actin formation is “impaired cortical actin formation”.

And the ERK activation (ERK)?
Its ERK activation is “inhibited”.

And the increase in apoptosis (WT HSC/P cells [4])?
The increase in apoptosis was “An increase in apoptosis was not seen”.

And the cell migration (WT neutrophils [5])?
The cell migration was “significant decrease”.

And the “percentage of NBT+ cells” value (WT neutrophils [6])?
Its value is “no change”.

What about the “number of cells in S+G2/M” value (WT HSC/P cells [7]) of the same molecule?
Its value is “significant reduction”.

For “p190: GAP-containing protein fraction of human p190, the predominant GAP for RhoA, expressed alone”, which RhoA-F30L-induced transformation (RhoA-F30L [8]) is on record?
The RhoA-F30L-induced transformation was “did not affect”.

What about the “biochemical activity of F30LRhoA” value (RhoA-F30L [9]) of the same molecule?
Its value is “did not affect”.

B1: p190-RhoA-C: p190GAP fused with the RhoA C-terminal sequence, expressed from a retroviral vector (protein)
chain: VPLTTVVTPEKPIPIFIERCIEYIEATGLSTEGIYRVSGNKSEMESLQRQFDQDHNLDLAEKDFTVNTVAGAMKSFFSELPDPLVPYSMQIDLVEAHKINDREQKLHALKEVLKKFPKENHEVFKYVISHLNRVSHNNKVNLMTSENLSICFWPTLMRPDFSSMDALTATRSYQTIIELFIQQCPFFFYNRPISEPPGAALAPLQPWHPLSPSSPLHLLPVSHHLPSHLLQPLSPQCSHCSPLSSKPNTRCEPPQPRKQENQLSSLQARRGKKKSGCLVL
modifications: chimeric fusion peptide/p190RhoGAP plus c-terminus tail section of the targeted GTPase
B1 was tested. Which “transforming activity of RhoA-F30L” value (RhoA-F30L [8]; expression with MIEG3) did it give?
Its value is “insufficient”.

What about the RhoA-F30L-induced transformation (RhoA-F30L [8]) of the same molecule?
The RhoA-F30L-induced transformation was “specifically decrease”.

What about the “biochemical activity of RhoA-F30L” value (RhoA-F30L [9]; expression with MIEG3) of the same molecule?
Its value is “insufficient”.

And the “biochemical activity of F30LRhoA” value (RhoA-F30L [9])?
Its value is “specifically decrease”.
